Experimental data: the supplement of paper PMC10307832

How the values were obtained:
Assay in all cases: relative viability (nuclei count vs DMSO), 5 days (fraction); higher = more cells survive
TPCA-1 + Foretinib = compound: C1=CC(=CC=C1C2=CC(=C(S2)NC(=O)N)C(=O)N)F [TPCA-1] + COc1cc2c(Oc3ccc(NC(=O)C4(C(=O)Nc5ccc(F)cc5)CC4)cc3F)ccnc2cc1OCCCN1CCOCC1 [Foretinib] (partner 0.25 µM)
In short: (§1)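 Values are medians from duplicate plates. Each reflects relative viability, defined as the nuclei count of treated wells over that of vehicle wells. Lung cancer cell lines in 1536-well plates were pin-tool dosed one day after seeding with one drug alone or with a fixed anchor-drug dose plus five library-drug doses (not always all listed) in √10 steps, then fixed, stained and imaged at 4× after 5 days.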

TPCA-1 + Pemetrexed = compound: C1=CC(=CC=C1C2=CC(=C(S2)NC(=O)N)C(=O)N)F [TPCA-1] + Nc1nc2[nH]cc(CCc3ccc(C(=O)N[C@@H](CCC(=O)O)C(=O)O)cc3)c2c(=O)[nH]1 [Pemetrexed] (partner 0.2 µM)
In short: as §1

Lestaurtinib + Dasatinib = compound: C[C@]12O[C@H](C[C@]1(O)CO)n1c3ccccc3c3c4c(c5c6ccccc6n2c5c31)CNC4=O [Lestaurtinib] + Cc1nc(Nc2ncc(C(=O)Nc3c(C)cccc3Cl)s2)cc(N2CCN(CCO)CC2)n1 [Dasatinib] (partner 0.075 µM)
In short: as §1

[1] = compound: C[C@]12O[C@H](C[C@]1(O)CO)n1c3ccccc3c3c4c(c5c6ccccc6n2c5c31)CNC4=O [Lestaurtinib] + Nc1nc2[nH]cc(CCc3ccc(C(=O)N[C@@H](CCC(=O)O)C(=O)O)cc3)c2c(=O)[nH]1 [Pemetrexed] (partner 0.2 µM)
In short: as §1

Cell Line | relative viability (TPCA-1 + Foretinib; first compound 0.04 µM) | relative viability (TPCA-1 + Foretinib; first compound 0.1265 µM) | relative viability (TPCA-1 + Foretinib; first compound 0.4 µM) | relative viability (TPCA-1 + Foretinib; first compound 1.265 µM) | relative viability (TPCA-1 + Foretinib; first compound 4 µM) | relative viability (TPCA-1 + Pemetrexed; first compound 0.04 µM) | relative viability (TPCA-1 + Pemetrexed; first compound 0.4 µM) | relative viability (TPCA-1 + Pemetrexed; first compound 1.265 µM) | relative viability (TPCA-1 + Pemetrexed; first compound 4 µM) | relative viability (Lestaurtinib + Dasatinib; first compound 0.005 µM) | relative viability (Lestaurtinib + Dasatinib; first compound 0.01581 µM) | relative viability (Lestaurtinib + Dasatinib; first compound 0.05 µM) | relative viability (Lestaurtinib + Dasatinib; first compound 0.1581 µM) | relative viability (Lestaurtinib + Dasatinib; first compound 0.5 µM) | relative viability ([1]; first compound 0.005 µM) | relative viability ([1]; first compound 0.05 µM) | relative viability ([1]; first compound 0.1581 µM) | relative viability ([1]; first compound 0.5 µM) | relative viability (TPCA-1 + Pemetrexed; first compound 0.1265 µM) | relative viability ([1]; first compound 0.01581 µM)
EBC-1 | 0.0976 | 0.0894 | 0.103 | 0.125 | 0.13 | – | – | – | – | – | – | – | – | – | – | – | – | – | – | –
EKVX | 0.627 | 0.596 | 0.895 | 0.624 | 0.148 | 0.43 | 0.343 | 0.329 | 0.375 | 0.477 | 0.735 | 0.562 | 0.576 | 0.373 | 0.419 | 0.276 | 0.398 | 0.256 | – | –
EMC-BAC-2 | 1.02 | 0.956 | 1.05 | 1.14 | 0.887 | 0.422 | 0.466 | 0.436 | 0.484 | 0.291 | 0.2 | 0.255 | 0.25 | 0.19 | 0.452 | 0.488 | 0.352 | 0.308 | 0.472 | 0.429
EPLC-272H | 0.747 | 0.643 | 0.815 | 0.456 | 0.309 | 0.287 | 0.371 | 0.359 | 0.266 | 0.282 | 0.301 | 0.169 | 0.187 | 0.125 | 0.308 | 0.452 | 0.189 | 0.0958 | 0.331 | 0.349
H3255 | 0.825 | 0.876 | 0.821 | 0.541 | 0.514 | 0.577 | 0.58 | 0.484 | 0.493 | 0.291 | 0.428 | 0.299 | 0.342 | 0.323 | 0.578 | 0.493 | 0.563 | 0.428 | 0.487 | 0.623
HARA | 0.874 | 0.907 | 0.887 | 0.893 | 0.681 | 0.242 | 0.226 | 0.198 | 0.223 | 0.27 | 0.3 | 0.21 | 0.261 | 0.238 | 0.265 | 0.203 | 0.171 | 0.196 | 0.226 | 0.246
HCC-15 | 1.09 | 0.919 | 1.06 | 0.96 | 0.77 | 0.222 | 0.224 | 0.238 | 0.22 | 0.73 | 0.702 | 0.485 | 0.38 | 0.169 | 0.244 | 0.229 | 0.195 | 0.138 | 0.227 | 0.227
HCC-44 | – | – | – | – | – | 0.617 | 0.575 | 0.627 | 0.595 | – | – | – | – | – | 0.635 | 0.491 | 0.648 | 0.377 | 0.657 | 0.685
HCC-78 | 0.611 | 0.52 | 0.608 | 0.65 | 0.541 | 0.919 | 0.932 | 0.885 | 0.9 | 0.341 | 0.669 | 0.294 | 0.25 | 0.218 | 0.9 | 0.851 | 1 | 0.903 | 0.911 | 0.918
